Test results from US20120035161A1, “Novel Compositions and Methods of Treating Diseases Using the Same” (CORRIDOR PHARMACEUTICALS, INC., priority 2006, published 2012).
Several values for one entry are separate records, joined by “and”; a condition that tells them apart may be missing. Identical values can stand only once.

Key:
[1] = test system: cryopreserved mixed gender human hepatocytes; experiment: Hepatocyte stability assay; assay type: in vitro ADME
Experimental: Test compounds (5 μM) were incubated with cryopreserved mixed gender human hepatocytes pooled from at least 3 donors. Cell viability of hepatocytes was assessed by a Trypan Blue assay prior to the initiation of the stability assay. The final hepatocyte cell density was 1.5×10^6 viable cells/mL, Samples were taken at 2 time points: 0 and 60 minutes. As positive controls, testosterone (20 μM) and 7-hydroxy-coumarin (100 μM) were incubated and sampled at 5 time points: 0, 15, 30, 60, and 120 minutes. Aliquots were removed and combined (50/50) with acetonitrile to terminate the reaction. Samples were mixed for 10 minutes and centrifuged. The supernatants were transferred to vial for analysis by HRMS. In this assay, both test compound and a des-glycine metabolite (M1) are quantified based on peak area response ratios.
The enzymatic activities of the human cryopreserved hepatocytes used in this study were verified in parallel by determining the disappearance of testosterone (expressed as half-life) and the formation of 7-hydroxycoumarin glucuronide and 7-hydroxycoumarin sulfate (expressed as a formation rate).

[2] = test system: HepG2 cells; experiment: Phospholipidosis assay (LipidTox); assay type: cell-based
Experimental: (§1) More recently, fluorescent dyes have been utilized to assess phospholipidosis in a high throughput manner (Nioi et al., 2007, Toxicol. Sci. 99:162-173). In this assay, HepG2 cells are plated in MEM growth medium and allowed to incubate overnight. Cells are treated with test compounds that have been added to the assay medium (10% fetal bovine serum) containing LipidTox (fluorescent lipophilic dye). After 48 h incubation, cells are fixed and stained with Hoechst. Plates are scanned with an automated fluorescent microscope (Thermo Fisher Cellomics ArrayScan 4.5) and image analysis is used to quantitate cell number and phospholipid accumulation. Compounds are tested in triplicate at multiple concentrations. Three reference compounds, sertraline, perhexyline, and meclizine (high, medium, and low inducers of phospholipidosis, respectively) are included in each assay. The data is expressed as fold induction over background and the % of the positive control (sertraline), which is calculated using the following equation:
(§2) % positive control=100×(RFUcompound−RFUbackground)/(RFUsertaline−RFUbackground),
(§3) where RFU=Relative Fluorescence Unit

[3] = Phospholipidosis assay (LipidTox); assay type: cell-based; settings: human
Experimental: as §1, §2, §3

[4] = test system: Serotonin (5-Hydroxytryptamine) 5-HT2, Non-Selective; experiment: Assay 271600 radioligand binding, 5-HT2 non-selective; design: species or system Wistar Rat
Experimental: (§4) The methods employed in this study have been adapted from the scientific literature to maximize reliability and reproducibility. Reference standards were run as an integral part of each assay to ensure the validity of the results obtained. Assays were performed under conditions as described below. Where presented, IC50 values were determined by a non-linear, least squares regression analysis using the Data Analysis Toolbox (MDL Information Systems, San Leandro, Calif., USA). Where inhibition constants (Ki) are presented, the Ki values were calculated using the equation of Cheng and Prusoff (Cheng, Y., Prusoff, W. H., Biochem. Pharmacol. 22:3099-3108, 1973) using the observed IC50 of the tested compound, the concentration of radioligand employed in the assay, and historical values for the KD of the ligand. Where presented, the Hill coefficient (nu), defining the slope of the competitive binding curve, was calculated using the Data Analysis Toolbox.

[5] = biological target: T1, Serotonin (5-Hydroxytryptamine) 5-HT1B (Rattus norvegicus, UniProt P28564); experiment: Assay 271200 radioligand binding, 5-HT1B; design: species or system Wistar Rat
T1 construct: from tissue
T1 sequence (P28564 whole entry): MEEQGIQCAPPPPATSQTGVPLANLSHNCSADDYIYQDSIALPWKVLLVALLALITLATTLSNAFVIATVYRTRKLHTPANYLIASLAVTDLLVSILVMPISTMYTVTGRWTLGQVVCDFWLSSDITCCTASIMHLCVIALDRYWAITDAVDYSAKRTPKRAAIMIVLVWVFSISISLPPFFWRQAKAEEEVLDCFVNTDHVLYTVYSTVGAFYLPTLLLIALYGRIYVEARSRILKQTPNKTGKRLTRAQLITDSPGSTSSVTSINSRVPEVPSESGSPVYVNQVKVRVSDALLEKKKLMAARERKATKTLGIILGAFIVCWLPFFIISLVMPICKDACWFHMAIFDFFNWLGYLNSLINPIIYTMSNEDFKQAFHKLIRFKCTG
Experimental: as §4

[6] = test system: TNF-α; experiment: Model of LPS-mediated cytokine production, serum TNF-α; assay type: in vivo, CD1:ICR mice; settings: for TNFα inhibition, dose-response study: IP, up to a dose of 5 mg/kg
Experimental: (§5) Both ICI-685 and ICI-735 were formulated in water. For the time course study, both drugs were formulated at a concentration of 1 mg/ml and dosed 10 ml/kg to produce a dose of 10 mg/kg. For the dose-response study, drug was formulated at concentrations of 0.05, 0.2 and 0.5 mg/ml and dosed at a volume of 10 ml/kg to produce doses of 0.5, 2 and 5 mg/kg, respectively. Animals were dosed IV or IP.
CD1:ICR mice were obtained from Harlan (Indianapolis, Ind.) at 6 weeks of age. Animals were housed 5 per cage, kept on a 12 hr light dark cycle and fed food and water ad libitum. Animals were tested at 8-10 weeks of age.
(§6) Lipopolysaccharide (heat killed E. coli 0127:B5; Sigma Aldrich) was prepared in distilled water at a concentration of 0.025 mg/ml. LPS was dosed at a volume of 10 ml/kg (IP) to produce a final dose of 0.25 mg/kg (approximately 7.5 μg/mouse). Drugs were dosed prior to LPS administration as indicated elsewhere herein. Blood was collected by retro-orbital eye bleed 90 minutes after LPS administration, Serum was prepared from blood and TNF-α and IL-1β levels were measured by using the OPT-EIA mouse TNF-α and IL-1β ELISA kits (BD Biosciences) as per directions of the manufacturer.
The first study was designed to determine the optimal route of administration and the optimal pre-treatment time. Two pre-dose time course studies were conducted. The first (Study 1A) was conducted with 3 pre-dose time points (2, 6 and 18 hrs). The second was conducted at 0, 1 and 2 hr predose time points. For both studies, drug was dosed IP or IV.
Using data from the first study, a second study was conducted that was designed to measure dose-response activity of each compound. Compounds were tested at doses of […]., 2.0 and 5 mg/kg using the route and pre-treatment time that produced the best activity.
as §5, with “Compounds ICI-715, ICI-824, ICI-953” for “Both ICI-685”, “ICI-954” for “ICI-735”, “study,” for “study, both”, “drugs were” for “drug was”
as §6, with “mg/ml,” for “mg/ml.”, “[…]).” for “μg/mouse).”, “above.” for “elsewhere herein.”, “administration.” for “administration,”
The first study was designed to determine the optimal route of administration and the optimal pre-treatment time. One pre-dose time course was conducted (for all compounds) with compounds administered at 0, 1 and 2 hrs prior to LPS treatment. For both studies, drug was dosed IP or IV. The IP study and IV study were conducted on separate days.
Using data from the first study, a second study was conducted that was designed to measure dose-response activity of each compound. Compounds were tested at doses of 0.5, 2.0 and 5 mg/kg using the route and pre-treatment time that produced the best activity.

[7] = biological target: T2, Serotonin (5-Hydroxytryptamine) 5-HT1A (Homo sapiens, UniProt P08908); experiment: Radioligand binding, 5-HT1A ([3H] 8-OH-DPAT)
T2 construct: expressed in transfected cells; host or cells: CHO cells
T2 sequence (P08908 1-422): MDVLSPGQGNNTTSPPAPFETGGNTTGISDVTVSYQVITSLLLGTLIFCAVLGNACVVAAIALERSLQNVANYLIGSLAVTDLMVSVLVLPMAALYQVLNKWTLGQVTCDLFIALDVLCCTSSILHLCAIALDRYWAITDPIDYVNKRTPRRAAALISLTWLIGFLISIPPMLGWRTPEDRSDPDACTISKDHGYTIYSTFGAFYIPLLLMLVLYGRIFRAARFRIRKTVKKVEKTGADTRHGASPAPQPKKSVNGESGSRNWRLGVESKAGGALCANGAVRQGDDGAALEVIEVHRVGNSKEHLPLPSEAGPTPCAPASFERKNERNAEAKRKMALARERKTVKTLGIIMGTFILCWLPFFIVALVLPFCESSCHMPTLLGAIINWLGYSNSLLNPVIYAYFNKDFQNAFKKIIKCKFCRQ
Experimental: as §4

[8] = test system: Serotonin (5-Hydroxytryptamine) 5-HT1, Non-Selective; experiment: Assay 271000 radioligand binding, 5-HT1 non-selective; design: species or system Wistar Rat
Experimental: as §4

[9] = T = 60 minutes, 5 μM test compound

| SMILES | % INHIBITION ([4]; 0.1 μM) [%] | % INHIBITION ([4]; 10 μM) [%] | % INHIBITION ([8]; 0.1 μM) [%] | % INHIBITION ([8]; 10 μM) [%] | % INHIBITION ([5]; 0.1 μM) [%] | % INHIBITION ([5]; 10 μM) [%] | % INHIBITION ([7]; 0.1 μM) [%] | % INHIBITION ([7]; 10 μM) [%] | also measured |
| --- | --- | --- | --- | --- | --- | --- | --- | --- | --- |
| CC(C)(N)C(=O)NCCN1CCN(CCCN2c3ccccc3Sc3ccc(C(F)(F)F)cc32)CC1 [Compound 36a, 2-Amino-2-methyl-N-(2-(4-(3-(2-(trifluoromethyl)-10H-phenothiazin-10-yl)propyl)piperazin-1-yl)ethyl)propanamide] | – | – | – | – | – | – | – | – | Relative Level (%) ([1]; T = 0 minutes, 5 μM test compound): 97.3% and 102.8%; Peak Areas [1, 9]: 3.42E+06 and 3.82E+06; Relative Level (%) [1, 9]: 99.0% and 109.1%; susceptibility to the metabolic transformation to the metabolite M1 ([1]; compared with ICI-735): less susceptible |
| O=CNCC(=O)NCCN1CCN(CCCN2c3ccccc3Sc3ccc(C(F)(F)F)cc32)CC1 [Compound 37b, 2-formamido-N-(2-(4-(3-(2-(trifluoromethyl)-10H-phenothiazin-10-yl)propyl)piperazin-1-yl)ethyl)acetamide] | – | – | – | – | – | – | – | – | cytotoxicity to HepG2 cells [2]: less cytotoxicity; propensity to form phospholipidosis [2]: lower propensity; % Positive Control ([2]; human, 48 h, 1 μM): 0.2%; % Positive Control ([2]; human, 48 h, 3 μM): 5.8%; % Positive Control ([2]; human, 48 h, 10 μM): 21.3%; cytotoxicity at 48 h, 1 µM [3]: 32%; cytotoxicity at 48 h, 3 µM [3]: 17%; cytotoxicity at 48 h, 10 µM [3]: 46%; cytotoxicity at 48 h, 30 µM [3]: 100%; fold induction at 48 h, 1 µM [3]: 1; fold induction at 48 h, 3 µM [3]: 4; fold induction at 48 h, 10 µM [3]: 12 |
| CN(C)S(=O)(=O)c1ccc2c(c1)N(CCCN1CCN(CCN)CC1)c1ccccc1S2 [ICI-715] | 18 | 83 | 15 | 62 | – | – | – | – | inhibition at 0.1 µM ([5]; 0.1 μM): 23%; inhibition at 10 µM ([5]; 10 μM): 90%; inhibition of TNFα ([6]; dose-response, all doses tested 0.5 to 5 mg/kg, IV): ≥ 50%; inhibition at 0.1 µM ([7]; 0.1 μM): 5%; inhibition at 10 µM ([7]; 10 μM): 87% |
| FC(F)(F)c1ccc2c(c1)N(CCCC1CCNCC1)c1ccccc1S2 [ICI-824] | 28 | 84 | −14 | 11 | – | – | – | – | inhibition at 0.1 µM ([5]; 0.1 μM): 2%; inhibition at 10 µM ([5]; 10 μM): 6%; TNFα inhibition, dose-response study [6]: ineffective; inhibition at 0.1 µM ([7]; 0.1 μM): 2%; inhibition at 10 µM ([7]; 10 μM): 53% |
| CNCC(=O)NCCN1CCC(CCCN2c3ccccc3Sc3ccc(C(F)(F)F)cc32)CC1 [ICI-849] | 15 | 85 | −2 | 10 | – | – | – | – | inhibition at 0.1 µM ([5]; 0.1 μM): -7%; inhibition at 10 µM ([5]; 10 μM): -2%; inhibition at 0.1 µM ([7]; 0.1 μM): 18%; inhibition at 10 µM ([7]; 10 μM): 65% |
| NCCN1CCN(CCCCN2c3ccccc3Sc3ccc(C(F)(F)F)cc32)CC1 [ICI-953] | 16 | 71 | −10 | −1 | 7 | 2 | 5 | 54 | TNFα inhibition, dose-response study [6]: ineffective |
| NCC(=O)NCCN1CCN(CCCCN2c3ccccc3Sc3ccc(C(F)(F)F)cc32)CC1 [ICI-954] | 21 | 89 | −3 | 18 | 4 | −1 | 6 | 56 | TNFα inhibition, dose-response study [6]: ineffective |
| FC(F)(F)c1ccc2c(c1)N(CCC1CCNCC1)c1ccccc1S2 [ICI-1007] | 51 | 87 | −12 | 24 | 8 | 48 | 2 | 48 | – |
| NCCN1CCC(CCN2c3ccccc3Sc3ccc(C(F)(F)F)cc32)CC1 [ICI-1008] | 38 | 94 | −20 | 3 | −3 | 0 | 4 | 69 | – |
| Cc1cccc(CN2CCN(C(c3ccccc3)c3ccc(Cl)cc3)CC2)c1 (stereo not shown) [Meclizine, meclizine, reference compound] | – | – | – | – | – | – | – | – | % Positive Control ([2]; human, 48 h, 25 μM): 24%; cytotoxicity at 48 h, 25 µM [3]: 0%; fold induction at 48 h, 25 µM [3]: 13 |
| C1CCC(C(CC2CCCCN2)C2CCCCC2)CC1 (stereo not shown) [Perhexil, perhexyline, reference compound] | – | – | – | – | – | – | – | – | % Cytotoxicity ([2]; 3 μM, 48 h): 10%; Fold Induction ([2]; 3 μM, 48 h): 38; % Positive Control ([2]; 3 μM, 48 h, positive control sertraline): 72% |
| CN[C@H]1CC[C@@H](c2ccc(Cl)c(Cl)c2)c2ccccc21 [Sertaline, sertraline, reference compound] | – | – | – | – | – | – | – | – | % Positive Control ([2]; human, 48 h, 3 μM): 100%; cytotoxicity at 48 h, 3 µM [3]: 15%; fold induction at 48 h, 3 µM [3]: 52 |
